In PMC11870035, “Discovery of Substituted 5-(2-Hydroxybenzoyl)-2-Pyridone Analogues as Inhibitors of the Human Caf1/CNOT7 Ribonuclease” (Molecules, 2024):

Molecular target: T1, human nuclease enzyme Caf1/CNOT7 (Homo sapiens, UniProt Q9UIV1)
Test: fluorescence-based nuclease activity assay
Type: biochemical
Settings: mean ± standard error; 0.4 µM Caf1/CNOT7, 1 µM Flc-RNA substrate, 30 °C, 60 min; read-out: IC50 versus Caf1/CNOT7
Method: Purity of the compounds was verified by LC-MS. The inhibitory activity of the compounds was assessed using a fluorescence-based activity assay described before. Briefly, purified Caf1/CNOT7 was pre-incubated in the presence of compound or vehicle only (DMSO) before addition of a Fluorescein-labelled RNA oligonucleotide substrate. The composition of the final reaction mixture (10 µL) was: 0.4 µM Caf1/CNOT7, 1 µM Flc-RNA substrate, 20 mM Tris–HCl pH 7.9, 50 mM NaCl, 2 mM MgCl2, 10% glycerol, 1 mM β-mercaptoethanol and 5% DMSO. After incubation at 30 °C for 60 min, 10 µL probe mix (5 µM TAMRA-DNA probe, 1% SDS and 20 mM Tris–HCl pH 8.0, 0.5 mM EDTA) was added. Fluorescence intensity was measured using a BioTek Synergy HT plate reader (Agilent, Cheshire, UK) using the filters 485 ± 20 nm (excitation) and 528 ± 20 nm (emission). Raw data were analysed in Microsoft Excel and non-linear regression was carried out using GraphPad Prism 6. Statistical analysis (one-way ANOVA with post-hoc Dunnett’s test) was also carried out using GraphPad Prism.

T1 sequence (Q9UIV1 whole entry): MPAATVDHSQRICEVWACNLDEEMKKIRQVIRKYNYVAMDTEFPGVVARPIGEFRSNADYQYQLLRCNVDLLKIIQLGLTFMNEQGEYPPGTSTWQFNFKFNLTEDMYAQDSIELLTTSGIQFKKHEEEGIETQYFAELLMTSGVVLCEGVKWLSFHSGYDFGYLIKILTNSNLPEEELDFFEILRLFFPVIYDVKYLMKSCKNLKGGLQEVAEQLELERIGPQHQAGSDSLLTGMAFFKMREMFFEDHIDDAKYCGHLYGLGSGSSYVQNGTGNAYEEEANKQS

Row | IC50 | SMILES
1 | 31.8 ± 1.8 µM | Cc1cccc(-n2cc(C(=O)c3cc(Br)ccc3O)cc(C#N)c2=O)c1 [Compound 15]
2 | 32.2 ± 1.6 µM | N#Cc1cc(C(=O)c2cc(Br)ccc2O)cn(-c2ccc(Cl)cc2)c1=O [Compound 8]
3 | 19.2 ± 1.1 µM | N#Cc1cc(C(=O)c2cc(Br)ccc2O)cn(-c2cc(Cl)cc(Cl)c2)c1=O [Compound 17]
4 | 44.5 ± 3.6 µM | Cc1ccccc1-n1cc(C(=O)c2cc(Br)ccc2O)cc(C#N)c1=O [Compound 16]
5 | 33.2 ± 0.5 µM | CCOC(=O)c1ccc(-n2cc(C(=O)c3cc(Br)ccc3O)cc(C#N)c2=O)cc1 [Compound 9]
6 | 47 ± 2.7 µM | N#Cc1cc(C(=O)c2cc(Br)ccc2O)cn(-c2ccc(F)c(Cl)c2)c1=O [Compound 13]
7 | 33.6 ± 1.1 µM | COc1cc(Cl)c(C)cc1-n1cc(C(=O)c2cc(F)ccc2O)cc(C#N)c1=O [Compound 11]
8 | 108 ± 4 µM | N#Cc1cc(C(=O)c2cc(Br)ccc2O)cn(-c2ccccc2)c1=O [Compound 12]
9 | 42.1 ± 1.4 µM | N#Cc1cc(C(=O)c2cc(Br)ccc2O)cn(-c2cccc(C(F)(F)F)c2)c1=O [Compound 10]
10 | 57.5 ± 4.7 µM | Cc1ccc(-n2cc(C(=O)c3cc(Br)ccc3O)cc(C#N)c2=O)cc1 [Compound 14]

More lines, now with the values behind:

Row | SMILES | IC50
11 | COc1ccccc1-n1cc(C(=O)c2cc(Br)ccc2O)cc(C#N)c1=O [Compound 6] | 80.9 ± 9.2 µM
12 | COc1cc(Cl)c(C)cc1-n1cc(C(=O)c2cc(Br)ccc2O)cc(C#N)c1=O [Compound 1, 5-(5-bromo-2-hydroxybenzoyl)-1-(4-chloro-2-methoxy-5-methylphenyl)-2-oxo-1,2-dihydropyridine-3-carbonitrile] | 24.1 ± 3.3 µM
13 | N#Cc1cc(C(=O)c2cc(Br)ccc2O)cn(-c2ccccc2Cl)c1=O [Compound 3] | 65.6 ± 3.3 µM
14 | N#Cc1cc(C(=O)c2cc(Br)ccc2O)cn(-c2ccccc2Oc2ccccc2)c1=O [Compound 4] | 39.3 ± 1.6 µM
15 | COc1ccc(-n2cc(C(=O)c3cc(Br)ccc3O)cc(C#N)c2=O)cc1 [Compound 5] | 81.1 ± 5 µM
16 | CCc1ccc(-n2cc(C(=O)c3cc(Br)ccc3O)cc(C#N)c2=O)cc1 [Compound 7] | 39 ± 2.6 µM

Same assay, conditions: ratio of IC50 values versus compound 1

Row | fold lower potency compared to 1 | SMILES
17 | < 2 fold | COc1cc(Cl)c(C)cc1-n1cc(C(=O)c2cc(F)ccc2O)cc(C#N)c1=O [Compound 11]
18 | 4–5 fold | N#Cc1cc(C(=O)c2cc(Br)ccc2O)cn(-c2ccccc2)c1=O [Compound 12]

Molecular target: T1, human nuclease enzyme Caf1/CNOT7
Test: not given
Parameters: method as in PMID 24170810
Settings: n = 3; read-out: originally reported IC50 versus Caf1/CNOT7; cited from earlier work

Row | SMILES | IC50
19 | COc1cc(Cl)c(C)cc1-n1cc(C(=O)c2cc(Br)ccc2O)cc(C#N)c1=O | 14.6 ± 3.1 µM

Tested on: Caf1/CNOT7
Test: not given
Parameters: method as in PMID 24170810
Settings: cited from earlier work

Row | SMILES | activity in gel-based assay | selectivity
20 | COc1cc(Cl)c(C)cc1-n1cc(C(=O)c2cc(Br)ccc2O)cc(C#N)c1=O [Compound 1, 5-(5-bromo-2-hydroxybenzoyl)-1-(4-chloro-2-methoxy-5-methylphenyl)-2-oxo-1,2-dihydropyridine-3-carbonitrile] | confirmed | selective to Caf1/CNOT7
